What was measured:
[1] = molecular target: Serotonin 3 (5-HT3) receptor; assay: Binding affinity against the 5-hydroxytryptamine 3 receptor; type: protein-complex assay
[2] = molecular target: 5-hydroxytryptamine receptor 1D (Cavia porcellus) (UniProt Q60484); assay: Oral effective dose against hypothermia in the guinea pig caused by stimulation of central 5-hydroxytryptamine 1D receptors by the agonist GR-46611;range is 0.2-0.4; type: functional
[3] = molecular target: T1, Adrenergic receptor alpha-2 (Homo sapiens, UniProt P08913+P18825+P18089); assay: Binding affinity against alpha-2 adrenoceptor; type: protein assay
T1 sequence (P08913 whole entry): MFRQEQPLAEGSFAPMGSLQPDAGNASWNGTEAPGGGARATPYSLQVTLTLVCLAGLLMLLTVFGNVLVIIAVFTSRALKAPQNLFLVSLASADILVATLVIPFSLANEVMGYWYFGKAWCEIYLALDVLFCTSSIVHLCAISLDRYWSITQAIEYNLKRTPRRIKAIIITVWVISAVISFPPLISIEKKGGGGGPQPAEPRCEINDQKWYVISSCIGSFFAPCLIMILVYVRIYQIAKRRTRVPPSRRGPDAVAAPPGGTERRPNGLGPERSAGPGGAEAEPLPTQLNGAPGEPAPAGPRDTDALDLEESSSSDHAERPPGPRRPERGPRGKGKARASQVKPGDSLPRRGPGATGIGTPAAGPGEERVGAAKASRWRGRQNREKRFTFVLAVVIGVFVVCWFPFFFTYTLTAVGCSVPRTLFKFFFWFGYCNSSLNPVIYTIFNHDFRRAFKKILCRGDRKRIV
T1 sequence (P18825 whole entry): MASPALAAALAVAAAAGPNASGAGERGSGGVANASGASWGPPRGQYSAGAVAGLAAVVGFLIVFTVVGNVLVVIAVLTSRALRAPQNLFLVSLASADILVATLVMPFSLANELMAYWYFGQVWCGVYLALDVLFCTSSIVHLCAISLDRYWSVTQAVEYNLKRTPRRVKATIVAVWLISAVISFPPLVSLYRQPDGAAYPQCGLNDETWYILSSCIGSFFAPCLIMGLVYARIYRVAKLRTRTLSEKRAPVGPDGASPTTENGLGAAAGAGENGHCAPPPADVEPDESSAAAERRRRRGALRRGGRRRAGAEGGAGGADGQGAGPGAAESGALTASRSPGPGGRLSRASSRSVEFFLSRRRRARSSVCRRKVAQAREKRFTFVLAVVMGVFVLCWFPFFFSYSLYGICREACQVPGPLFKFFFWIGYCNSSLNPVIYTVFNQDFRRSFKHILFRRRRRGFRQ
T1 sequence (P18089 whole entry): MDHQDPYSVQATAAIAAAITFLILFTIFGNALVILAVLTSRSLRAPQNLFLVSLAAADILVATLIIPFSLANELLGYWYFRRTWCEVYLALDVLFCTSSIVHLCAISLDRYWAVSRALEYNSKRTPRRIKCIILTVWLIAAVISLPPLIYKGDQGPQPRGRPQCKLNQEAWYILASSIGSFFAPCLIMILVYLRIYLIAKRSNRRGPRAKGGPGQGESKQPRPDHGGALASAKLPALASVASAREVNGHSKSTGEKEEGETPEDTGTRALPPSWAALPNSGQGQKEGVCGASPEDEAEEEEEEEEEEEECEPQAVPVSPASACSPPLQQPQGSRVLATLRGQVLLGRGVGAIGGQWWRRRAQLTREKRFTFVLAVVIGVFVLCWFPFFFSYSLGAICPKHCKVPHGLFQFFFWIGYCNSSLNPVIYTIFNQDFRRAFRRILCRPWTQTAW

[4] = molecular target: 5-hydroxytryptamine receptor 4 (Homo sapiens, UniProt Q13639); assay: Binding affinity against 5-hydroxytryptamine 4 receptor
5-hydroxytryptamine receptor 4, sequence (Q13639 whole entry): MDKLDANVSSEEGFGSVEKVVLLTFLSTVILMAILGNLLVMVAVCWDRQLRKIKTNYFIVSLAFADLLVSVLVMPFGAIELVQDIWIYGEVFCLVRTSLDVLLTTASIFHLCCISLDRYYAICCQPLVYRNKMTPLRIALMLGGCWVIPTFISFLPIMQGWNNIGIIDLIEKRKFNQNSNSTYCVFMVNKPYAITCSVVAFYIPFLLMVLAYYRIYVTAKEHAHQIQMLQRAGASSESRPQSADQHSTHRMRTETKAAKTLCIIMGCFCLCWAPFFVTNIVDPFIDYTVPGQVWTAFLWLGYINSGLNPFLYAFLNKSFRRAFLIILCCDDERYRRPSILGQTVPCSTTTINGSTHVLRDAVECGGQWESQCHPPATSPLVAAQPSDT

D(3) dopamine receptor = D(3) dopamine receptor (Homo sapiens, UniProt P35462); assay: Binding affinity against dopamine D3 receptor
D(3) dopamine receptor, sequence (P35462 whole entry): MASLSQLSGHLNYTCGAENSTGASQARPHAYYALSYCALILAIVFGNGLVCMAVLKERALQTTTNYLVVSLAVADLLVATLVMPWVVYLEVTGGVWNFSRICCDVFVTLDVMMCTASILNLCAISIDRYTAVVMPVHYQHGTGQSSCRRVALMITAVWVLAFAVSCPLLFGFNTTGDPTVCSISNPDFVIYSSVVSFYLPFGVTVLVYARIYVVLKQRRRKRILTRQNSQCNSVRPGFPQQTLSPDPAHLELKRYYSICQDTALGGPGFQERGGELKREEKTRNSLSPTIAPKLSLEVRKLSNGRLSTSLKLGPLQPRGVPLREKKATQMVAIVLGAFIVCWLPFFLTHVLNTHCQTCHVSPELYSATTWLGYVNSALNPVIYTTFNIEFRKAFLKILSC

D(4) dopamine receptor = molecular target: T2, D(4) dopamine receptor (Homo sapiens, UniProt P21917); assay: Binding affinity against dopamine D4 receptor
T2 sequence (P21917 whole entry): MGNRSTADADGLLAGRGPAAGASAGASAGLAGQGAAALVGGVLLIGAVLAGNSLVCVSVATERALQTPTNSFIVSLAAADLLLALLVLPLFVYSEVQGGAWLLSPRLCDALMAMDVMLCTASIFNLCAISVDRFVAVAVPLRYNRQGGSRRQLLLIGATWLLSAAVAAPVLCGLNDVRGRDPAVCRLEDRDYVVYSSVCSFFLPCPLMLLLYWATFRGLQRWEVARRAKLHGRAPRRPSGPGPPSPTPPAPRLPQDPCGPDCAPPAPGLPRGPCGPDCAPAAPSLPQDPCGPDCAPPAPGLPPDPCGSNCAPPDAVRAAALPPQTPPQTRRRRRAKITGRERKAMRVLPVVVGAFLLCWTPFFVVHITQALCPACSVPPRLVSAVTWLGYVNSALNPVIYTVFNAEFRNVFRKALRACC

Canis familiaris = species on record: Canis familiaris; conditions: Canis lupus familiaris; Saphenous vein; filed as antagonist
D(2) dopamine receptor = D(2) dopamine receptor (Homo sapiens, UniProt P14416); assay: Binding affinity against dopamine D2 receptor
D(2) dopamine receptor, sequence (P14416 whole entry): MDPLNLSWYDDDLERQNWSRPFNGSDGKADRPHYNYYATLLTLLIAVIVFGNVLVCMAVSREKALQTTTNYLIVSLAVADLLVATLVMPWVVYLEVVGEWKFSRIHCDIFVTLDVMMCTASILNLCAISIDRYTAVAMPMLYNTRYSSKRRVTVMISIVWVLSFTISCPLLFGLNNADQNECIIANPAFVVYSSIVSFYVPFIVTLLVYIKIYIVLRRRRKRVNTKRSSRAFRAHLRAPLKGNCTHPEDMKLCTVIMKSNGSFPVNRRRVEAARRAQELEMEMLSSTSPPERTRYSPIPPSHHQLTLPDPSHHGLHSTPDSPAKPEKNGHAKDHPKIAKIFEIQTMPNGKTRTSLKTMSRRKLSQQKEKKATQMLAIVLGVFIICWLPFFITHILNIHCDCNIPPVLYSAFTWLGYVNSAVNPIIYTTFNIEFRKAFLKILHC

[5] = molecular target: 5-hydroxytryptamine receptor 1B (Rattus norvegicus, UniProt P28564); assay: In vitro binding affinity towards 5-hydroxytryptamine 1B receptor in rat striatal membrane with [125I]- iodocyanopindolol; type: cell membranes, Striatum
5-hydroxytryptamine receptor 1B, sequence (P28564 whole entry): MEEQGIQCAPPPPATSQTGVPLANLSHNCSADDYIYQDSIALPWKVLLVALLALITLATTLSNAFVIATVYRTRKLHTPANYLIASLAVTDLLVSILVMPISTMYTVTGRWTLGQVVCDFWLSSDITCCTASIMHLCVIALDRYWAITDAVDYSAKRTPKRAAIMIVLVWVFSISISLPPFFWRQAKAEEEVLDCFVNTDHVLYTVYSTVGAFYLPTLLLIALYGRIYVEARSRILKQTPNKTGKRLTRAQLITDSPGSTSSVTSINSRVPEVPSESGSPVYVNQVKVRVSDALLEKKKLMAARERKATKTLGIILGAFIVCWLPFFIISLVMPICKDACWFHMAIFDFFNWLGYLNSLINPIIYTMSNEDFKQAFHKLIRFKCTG

[6] = molecular target: Muscarinic acetylcholine receptor M3 (Homo sapiens, UniProt P20309); assay: Binding affinity against muscarinic M3 receptor
Muscarinic acetylcholine receptor M3, sequence (P20309 whole entry): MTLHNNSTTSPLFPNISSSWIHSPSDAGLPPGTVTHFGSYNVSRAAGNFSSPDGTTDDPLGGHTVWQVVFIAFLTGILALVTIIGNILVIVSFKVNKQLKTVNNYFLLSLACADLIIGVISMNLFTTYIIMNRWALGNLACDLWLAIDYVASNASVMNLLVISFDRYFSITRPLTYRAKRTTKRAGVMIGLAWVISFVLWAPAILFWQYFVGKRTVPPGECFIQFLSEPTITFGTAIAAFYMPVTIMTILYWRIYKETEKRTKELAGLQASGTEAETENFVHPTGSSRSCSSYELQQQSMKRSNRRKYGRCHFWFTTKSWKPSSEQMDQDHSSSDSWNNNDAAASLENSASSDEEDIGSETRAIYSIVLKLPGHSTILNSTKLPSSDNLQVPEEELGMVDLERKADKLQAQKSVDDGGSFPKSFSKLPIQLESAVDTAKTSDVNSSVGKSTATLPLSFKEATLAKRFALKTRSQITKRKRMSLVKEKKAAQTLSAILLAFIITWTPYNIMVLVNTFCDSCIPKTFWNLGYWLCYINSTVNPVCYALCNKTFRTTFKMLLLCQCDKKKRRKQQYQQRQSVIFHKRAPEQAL

[7] = molecular target: 5-hydroxytryptamine receptor 1D (Cavia porcellus, UniProt Q60484); assay: In vitro binding affinity towards 5-hydroxytryptamine 1D receptor in guinea-pig striatum in presence of BMY-7378 and mesulergine; type: tissue-based
5-hydroxytryptamine receptor 1D, sequence (Q60484 whole entry): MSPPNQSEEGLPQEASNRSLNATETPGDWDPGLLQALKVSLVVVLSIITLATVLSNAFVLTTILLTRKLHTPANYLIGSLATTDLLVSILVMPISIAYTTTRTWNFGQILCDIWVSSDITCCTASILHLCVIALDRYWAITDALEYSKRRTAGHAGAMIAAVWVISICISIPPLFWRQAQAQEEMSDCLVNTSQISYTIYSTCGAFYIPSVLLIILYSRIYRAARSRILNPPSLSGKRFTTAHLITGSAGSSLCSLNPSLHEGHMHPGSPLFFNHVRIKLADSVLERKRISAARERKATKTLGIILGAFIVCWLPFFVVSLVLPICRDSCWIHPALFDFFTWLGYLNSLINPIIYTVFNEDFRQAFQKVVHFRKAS

5-hydroxytryptamine receptor 1D (Cavia porcellus), sequence (Q60484 whole entry): as above

**Q.** What does the source list for `COc1ccc(NC(=O)c2ccc(-c3ccc(-c4noc(C)n4)cc3C)cc2)cc1N1CCN(C)CC1` [GR-127935]?
**A.** Log Ki [1]: -5.2; ED50 [2]: 0.3 mg/kg; Log Ki [3]: > -6; Ki [4]: > 10 µM; Ki (D(3) dopamine receptor): > 10 µM; Ki (D(4) dopamine receptor): > 10 µM; pKB (Canis familiaris): Antagonist; Ki (D(2) dopamine receptor): > 10 µM; Ki [5]: 0.00316 µM; Ki [6]: > 1 µM; Ki [7]: 0.00316 µM

From ChEMBL document CHEMBL1127581, “Evolution of a novel series of [(N,N-dimethylamino)propyl]- and piperazinylbenzanilides as the first selective 5-HT1D antagonists” (J Med Chem, 1994)
